Among the data in ChEMBL document CHEMBL1148225, “Discovery and SAR of trisubstituted thiazolidinones as CCR4 antagonists” (Bioorg Med Chem Lett, 2004) are IC50 values, retold here.

The assay has as its target T1, C-C chemokine receptor type 4 (Homo sapiens, UniProt P51679).
T1 sequence (P51679 whole entry): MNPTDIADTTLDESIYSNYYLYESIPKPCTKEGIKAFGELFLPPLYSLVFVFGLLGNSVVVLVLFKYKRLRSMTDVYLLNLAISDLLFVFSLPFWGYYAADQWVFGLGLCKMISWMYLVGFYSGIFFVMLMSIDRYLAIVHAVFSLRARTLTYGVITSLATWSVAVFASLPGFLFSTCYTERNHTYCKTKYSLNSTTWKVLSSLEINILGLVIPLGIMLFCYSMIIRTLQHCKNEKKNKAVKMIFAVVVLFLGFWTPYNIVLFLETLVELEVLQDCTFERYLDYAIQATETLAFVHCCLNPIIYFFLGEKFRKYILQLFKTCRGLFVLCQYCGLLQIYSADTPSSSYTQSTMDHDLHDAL
Kind of assay: Inhibition of [125I]MDC binding to recombinant human C-C chemokine receptor type 4 (CCR4) expressed in murine pre-B cells. Format: cell-based.

By IC50 is commonly meant the concentration needed to halve the response being measured. Regarding `C[C@@H](NC(=O)C[C@H]1S[C@H](c2ccc(Cl)cc2Cl)N(CC(=O)NCCCN2CCOCC2)C1=O)c1ccccc1` (stereo in doubt), the 50% inhibitory concentration (IC50) worked out at 8 µM. For the molecule `Cc1ccccc1CNC(=O)C[C@H]1S[C@H](c2ccc(Cl)cc2Cl)N(CC(=O)NCCCN2CCOCC2)C1=O`, the IC50 turned out to be 11 µM. On to `CC(C)(C)CCNC(=O)C[C@H]1S[C@H](c2ccc(Cl)cc2Cl)N(CC(=O)NCCCN2CCOCC2)C1=O`, for which the IC50 is 21 µM. Next, `O=C(C[C@H]1S[C@H](c2ccc(Cl)cc2Cl)N(CC(=O)NCCCN2CCOCC2)C1=O)NCc1cccc(F)c1`: 1.5 µM. Take `Cc1cccc(CNC(=O)C[C@H]2S[C@H](c3ccc(Cl)cc3Cl)N(CC(=O)NCCCN3CCOCC3)C2=O)c1C`: the IC50 was 0.44 µM.

As to `O=C(C[C@H]1S[C@H](c2ccc(Cl)cc2Cl)N(CCCN2CCOCC2)C1=O)NCc1cccc2ccccc12`, the IC50 amounted to 33 µM. Take `O=C(C[C@H]1S[C@H](c2c(Cl)cccc2Cl)N(CC(=O)NCCCN2CCOCC2)C1=O)NCc1cccc2ccccc12`: the half-maximal inhibitory concentration (IC50) was 8 µM. With `O=C(C[C@H]1S[C@H](c2ccc(F)cc2F)N(CC(=O)NCCCN2CCOCC2)C1=O)NCc1cccc2ccccc12`, the IC50 worked out at 1 µM.

With `O=C(C[C@H]1S[C@H](c2ccc(Cl)cc2Cl)N(CC(=O)NCCCN2CCOCC2)C1=O)NCc1ccccc1-c1ccccc1`, the IC50 was 6 µM. To `CN(C)CCCN1C(=O)[C@@H](CC(=O)NCc2cccc3ccccc23)S[C@@H]1c1ccc(Cl)cc1Cl` belongs 5.6 µM.

Consider `COc1ccc(CNC(=O)C[C@H]2S[C@H](c3ccc(Cl)cc3Cl)N(CC(=O)NCCCN3CCOCC3)C2=O)c(OC)c1`, for which the IC50 came out at 32 µM. Regarding `O=C(C[C@H]1S[C@H](c2ccc(Cl)c(Cl)c2)N(CC(=O)NCCCN2CCOCC2)C1=O)NCc1cccc2ccccc12`, the IC50 was over 25 µM. Take `CN(C)CCCN(C)C(=O)CN1C(=O)[C@@H](CC(=O)NCc2cccc3ccccc23)S[C@@H]1c1ccc(Cl)cc1Cl`: the IC50 came to 0.36 µM. With `O=C(C[C@H]1S[C@H](c2cc(Cl)ccc2Cl)N(CC(=O)NCCCN2CCOCC2)C1=O)NCc1cccc2ccccc12`, the half-inhibitory concentration (IC50) came to 12 µM.

Consider `O=C(C[C@H]1S[C@H](c2ccc(Cl)cc2Cl)N(CC(=O)NCCCN2CCOCC2)C1=O)NCc1ccc(-c2ccccc2)cc1`, for which the IC50 was determined as 2.5 µM.

For the molecule `O=C(C[C@H]1S[C@H](c2ccc(Cl)cc2Cl)N(CC(=O)N2CCC(N3CCCCC3)CC2)C1=O)NCc1cccc2ccccc12`, the IC50 is 0.33 µM. Next, `CC(C)CCNC(=O)C[C@H]1S[C@H](c2ccc(Cl)cc2Cl)N(CC(=O)NCCCN2CCOCC2)C1=O`: 19 µM. To `O=C(C[C@H]1S[C@H](c2ccoc2)N(CC(=O)NCCCN2CCOCC2)C1=O)NCc1cccc2ccccc12` belongs 100 µM; to `O=C(C[C@H]1S[C@H](c2ccc(Cl)cc2Cl)N(CC(=O)NCCCN2CCOCC2)C1=O)NCc1cccc(Cl)c1Cl`, 0.79 µM. As to `CN1CCN(C(=O)CN2C(=O)[C@@H](CC(=O)NCc3cccc4ccccc34)S[C@@H]2c2ccc(Cl)cc2Cl)CC1`, the IC50 worked out at 20 µM. To `O=C(C[C@H]1S[C@H](c2ccc(Cl)cc2Cl)N(CC(=O)NCCCN2CCOCC2)C1=O)NCc1cccc(Cl)c1` belongs 0.93 µM; to `CN(C)CCCNC(=O)CN1C(=O)[C@@H](CC(=O)NCc2cccc3ccccc23)S[C@@H]1c1ccc(Cl)cc1Cl`, 0.36 µM; to `COc1ccc([C@H]2S[C@H](CC(=O)NCc3cccc4ccccc34)C(=O)N2CC(=O)NCCCN2CCOCC2)c(OC)c1`, 33 µM.

Regarding `Cc1ccc(CNC(=O)C[C@H]2S[C@H](c3ccc(Cl)cc3Cl)N(CC(=O)NCCCN3CCOCC3)C2=O)n1C`, the IC50 is 2.5 µM. Regarding `O=C(C[C@H]1S[C@H](c2ccc(Cl)cc2Cl)N(CC(=O)NCCCCCN2CCOCC2)C1=O)NCc1cccc2ccccc12`, the IC50 amounted to 2.4 µM. Take `Cc1c(Cl)cccc1CNC(=O)C[C@H]1S[C@H](c2ccc(Cl)cc2Cl)N(CC(=O)NCCCN2CCOCC2)C1=O`: the IC50 came to 0.4 µM.

As to `O=C(C[C@H]1S[C@H](c2ccsc2)N(CC(=O)NCCCN2CCOCC2)C1=O)NCc1cccc2ccccc12`, the IC50 was determined as 66 µM. Turning to `O=C(C[C@H]1S[C@H](c2ccc(Cl)cc2Cl)N(CCCCN2CCOCC2)C1=O)NCc1cccc2ccccc12`, the IC50 was determined as 18 µM.

As for `COc1ccc(CNC(=O)C[C@H]2S[C@H](c3ccc(Cl)cc3Cl)N(CC(=O)NCCCN3CCOCC3)C2=O)c(OC)c1OC`, the IC50 was determined as 11 µM. To `O=C(C[C@H]1S[C@H](c2ccc(Cl)cc2Cl)N(CC(=O)N2CCC(N3CCCC3)CC2)C1=O)NCc1cccc2ccccc12` belongs 0.6 µM; to `O=C(C[C@H]1S[C@H](c2ccc(Cl)cc2Cl)N(CC(=O)NCCCN2CCOCC2)C1=O)NCc1ccccc1Cl`, 10 µM.

Take `O=C(C[C@H]1S[C@H](c2ccc(Cl)cc2Cl)N(CCN2CCOCC2)C1=O)NCc1cccc2ccccc12`: the IC50 came out at 9 µM. As for `O=C(CN1C(=O)[C@@H](CC(=O)NC2CCCCC2)S[C@@H]1c1ccc(Cl)cc1Cl)NCCCN1CCOCC1`, the IC50 came out at 7 µM.

As to `O=C(C[C@H]1S[C@H](C2CCCCC2)N(CC(=O)NCCCN2CCOCC2)C1=O)NCc1cccc2ccccc12`, the IC50 was 100 µM. In the case of `O=C(C[C@H]1S[C@H](c2ccc(Cl)cc2Cl)N(CC(=O)NCCCN2CCOCC2)C1=O)NCc1ccc2[nH]ccc2c1`, the IC50 was found to be 1 µM.

As for `O=C(C[C@H]1S[C@H](c2ccc(Cl)cc2Cl)N(CC(=O)NCCCN2CCOCC2)C1=O)NCc1cccc(C(F)(F)F)c1`, the IC50 is 1 µM. To `O=C(C[C@H]1S[C@H](c2ccc(Cl)cc2Cl)N(CC(=O)NCCCN2CCCC2)C1=O)NCc1cccc2ccccc12` belongs 0.31 µM; to `NCCNC(=O)CCN1C(=O)[C@@H](CC(=O)NCc2cccc3ccccc23)S[C@@H]1c1ccc(Cl)cc1Cl`, 9 µM; to `O=C(C[C@H]1S[C@H](c2ccc(Cl)cc2Cl)N(Cc2cccc(CN3CCOCC3)c2)C1=O)NCc1cccc2ccccc12`, 100 µM. On to `O=C(C[C@H]1S[C@H](c2cccs2)N(CC(=O)NCCCN2CCOCC2)C1=O)NCc1cccc2ccccc12`, for which the IC50 turned out to be 33 µM.

Consider `O=C(C[C@H]1S[C@H](c2ccc(Cl)cc2Cl)N(CC(=O)NCCCN2CCOCC2)C1=O)NCc1cccc2ccccc12`, for which the IC50 turned out to be 0.69 µM. Next, `CN1CCN(CCCNC(=O)CN2C(=O)[C@@H](CC(=O)NCc3cccc4ccccc34)S[C@@H]2c2ccc(Cl)cc2Cl)CC1`: 0.57 µM; `O=C(C[C@H]1S[C@H](c2cc(Cl)cc(Cl)c2)N(CC(=O)NCCCN2CCOCC2)C1=O)NCc1cccc2ccccc12`: 9 µM; `O=C(C[C@H]1S[C@H](c2ccc(Cl)cc2Cl)N(CC(=O)NCCCN2CCOCC2)C1=O)NCc1cccc(C(F)(F)F)c1F`: 2.5 µM.

On to `O=C(C[C@H]1S[C@H](c2ccc(Cl)cc2Cl)N(CC(=O)NCCCN2CCOCC2)C1=O)NCc1cccs1`, for which the IC50 turned out to be 11 µM. To `O=C(C[C@H]1S[C@H](c2ccc(Cl)cc2Cl)N(CC(=O)NCCCN2CCOCC2)C1=O)NCc1cc(Cl)ccc1Cl` belongs 4 µM.

For the molecule `C[C@H](NC(=O)C[C@H]1S[C@H](c2ccc(Cl)cc2Cl)N(CC(=O)NCCCN2CCOCC2)C1=O)c1ccccc1`, the IC50 was 12 µM. Next, `O=C(C[C@H]1S[C@H](c2ccc(Cl)cc2Cl)N(CC(=O)NCCCN2CCOCC2)C1=O)NCc1ccc(Cl)cc1Cl` (stereo in doubt; 66): 2 µM.

Regarding `CN(C)CC(=O)NCCN1C(=O)[C@@H](CC(=O)NCc2cccc3ccccc23)S[C@@H]1c1ccc(Cl)cc1Cl`, the IC50 worked out at 11 µM.
